The numbers were not newly measured in paper PMC4691061, “Repositioning of Thiourea-Containing Drugs as Tyrosinase Inhibitors” (International Journal of Molecular Sciences, 2015), which cites them from elsewhere.

Structures are written as SMILES.

This data set concerns the target tyrosinase. The note with it: tyrosinase; read-out: IC50; cited from earlier work.

In the case of `CCc1cc(C(N)=S)ccn1` [ethionamide], the half-maximal inhibitory concentration (IC50) (usually the concentration that gives 50% inhibition) is 4 µM.
